The series is described as follows: pKa of photoactive compound in ground and excited state. The series is classed as physicochemical. The source says: The operating range of the photoactive compound may be related to the difference in pKa between the excited and ground states of the photoactive molecule. The operating range may be ascertained by determining the pKa of the photoactive compound in its ground state (e.g. the base or relatively weak acid form) and the pKa of the compound in its excited state (e.g. the relatively strong acidic form). The difference in pKa between these two forms therefore defines the operating range of the photoactive compound. […] The requirement to select an amine for use with a photochromic molecule that results in an absorbent pH within the working range of the photochromic molecule can be illustrated by calculation. […] The pH of a mixture containing 0.5 M amine and 0.25 M MEH (ground state) as a function of absorbed CO2 and 0.5 M amine and 0.25 spiropyran (excited state) as function of absorbed CO2 was calculated using the published method Puxty, […]. Int. […]. Gas Control, 17 (2013), 215-224. The difference in pH of the absorbent at each concentration of absorbed CO2 is indicative of the ability of excitation to remove CO2 from the absorbent. […] Chem. Thermodynamics, 51 (2012), 97-102 and Fernandes, D., et al., J. Chem. Thermodynamics, 54 (2012), 183-191.

Here are results for two compounds from US9776127B2, “Reversible light driven gas absorbent solution and process” (Commonwealth Scientific and Industrial Research Organisation, priority 2013, dated 2017).

Broadly, the pKa is the negative logarithm of the acid dissociation constant. High values mean a group that holds its proton tightly, low ones a group that gives up its proton readily.

Regarding `O=[N+]([O-])CCc1c(O)ccc2ccccc12` [1-(2-nitroethyl)-2-naphthol], the pKa amounted to 1.9 (excited state) and 9.7 (ground state). Under “aqueous solution, ground state, aqueous solution at room temperature”, `CC1(C)C(/C=C/c2ccccc2O)=[N+](CCCS(=O)(=O)[O-])c2ccccc21` [MEH] registered a pKa of 7.8.
